The assay deals with T1, human GLP-1R receptor (Homo sapiens, UniProt P43220).
T1 construct: expressed in transfected cells
The experiment in a line: GLP-1R low expression cell assay (cAMP TR-FRET, CHO-K1_hGLP-1Rlow_clone10 cells). Conditions: for EC50: cAMP TR-FRET, 30 min at 25° C.; for Emax: maximum activation relative to control GLP-1 peptide agonist. Format: cell-based. Summed up:
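Readout is cAMP TR-FRET after 30 min compound stimulation at 25 °C of a low-GLP-1R-expressing CHO-K1 clone (1,000 cells/well), with 10-point 3-fold serial dilutions. Percent activation versus a control GLP-1 peptide, from duplicates, was Hill-fitted to give EC50.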
For orientation: Time-resolved FRET reads energy transfer from a long-lived donor to a nearby acceptor.

T1 sequence (P43220 24-463): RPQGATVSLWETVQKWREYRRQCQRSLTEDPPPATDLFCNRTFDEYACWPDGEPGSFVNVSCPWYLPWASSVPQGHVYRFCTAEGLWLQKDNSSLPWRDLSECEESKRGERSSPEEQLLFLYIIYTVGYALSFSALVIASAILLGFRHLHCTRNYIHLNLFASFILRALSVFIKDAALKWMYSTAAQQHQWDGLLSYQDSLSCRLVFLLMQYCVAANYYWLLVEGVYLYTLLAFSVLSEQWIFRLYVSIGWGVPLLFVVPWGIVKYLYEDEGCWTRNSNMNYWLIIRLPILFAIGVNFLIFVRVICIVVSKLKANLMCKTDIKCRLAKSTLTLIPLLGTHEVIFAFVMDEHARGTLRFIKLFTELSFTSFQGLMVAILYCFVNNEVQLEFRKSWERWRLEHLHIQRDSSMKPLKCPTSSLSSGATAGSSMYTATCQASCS

Molecule `C[C@@H](Oc1ccccc1C1CCN(Cc2nc3c(OC(F)F)cc(C(=O)O)cc3n2C)CC1)c1ccc(C#N)cc1F` (single isomer, unassigned) [Compound 173] yielded an EC50 greater than 1000 nM and an Emax of less than 25%.

`O=C(O)c1cc(OCF)c2c(c1)nc(CN1CCC(c3cccc(OCc4ccc(Cl)cc4F)n3)CC1)n2CF` [Compound 347, 2-((4-(6-((4-Chloro-2-fluorobenzyl)oxy)pyridin-2-yl)piperidin-1-yl)methyl)-7-(fluoromethoxy)-1-(fluoromethyl)-1H-benzo[d]imidazole-5-carboxylic acid] displayed an EC50 greater than 1000 nM and an Emax of 25 to 50%.

`Cn1c(CN2CCC(c3cccc4c3O[C@H](c3ccc(Cl)cc3F)CO4)CC2)nc2c(OCCF)cc(C(=O)O)cc21` [Compound 333, (R)-2-((4-(3-(4-chloro-2-fluorophenyl)-2,3-dihydrobenzo[b][1,4]dioxin-5-yl)piperidin-1-yl)methyl)-4-(2-fluoroethoxy)-1-methyl-1H-benzo[d]imidazole-6-carboxylic acid] came in with an EC50 of 100 to 1000 nM and a maximum response (Emax) greater than 85%.

`Cn1c(CN2CCC(c3cccc(OCc4ccc(Cl)cc4F)n3)CC2)nc2c3c(c(C(=O)O)cc21)OCO3` [Compound 275, 7-((4-(6-((4-Chloro-2-fluorobenzyl)oxy)pyridin-2-yl)piperidin-1-yl)methyl)-6-methyl-6H-[1,3]dioxolo[4′,5′:3,4]benzo[1,2-d]imidazole-4-carboxylic acid] returned an EC50 of 10 to 100 nM and an Emax greater than 85%.

Take `Cn1c(CN2CCC(c3cccc4c3O[C@H](c3ccc(C#N)cc3F)CO4)CC2)nc2c(OCCF)cc(C(=O)O)cc21` [Compound 315, (R)-2-((4-(3-(4-Cyano-2-fluorophenyl)-2,3-dihydrobenzo[b][1,4]dioxin-5-yl)piperidin-1-yl)methyl)-4-(2-fluoroethoxy)-1-methyl-1H-benzo[d]imidazole-6-carboxylic acid]: the EC50 lay within 10 to 100 nM and the Emax is greater than 85%.

As to `Cn1c(CN2CCC(c3cccc(OCc4ccc(F)cc4)n3)CC2)nc2c(OC(F)F)cc(C(=O)O)cc21` [Compound 254, 4-(Difluoromethoxy)-2-((4-(6-((4-fluorobenzyl)oxy)pyridin-2-yl)piperidin-1-yl)methyl)-1-methyl-1H-benzo[d]imidazole-6-carboxylic acid], the EC50 fell in the range of 100 to 1000 nM.

The molecule `Cn1c(CN2CCC(c3ccc4ccn(Cc5ccc(Cl)cc5F)c4n3)CC2)nc2c(OC(F)F)cc(C(=O)O)cc21` [Compound 205, 2-((4-(1-(4-Chloro-2-fluorobenzyl)-1H-pyrrolo[2,3-b]pyridin-6-yl)piperidin-1-yl)methyl)-4-(difluoromethoxy)-1-methyl-1H-benzo[d]imidazole-6-carboxylic acid] came in with an EC50 greater than 1000 nM and an Emax of 50 to 85%.

The molecule `Cn1c(CN2CCC(c3cccc(OCc4ccc(Cl)cc4F)c3)CC2)nc2c(OC(F)F)cc(C(=O)O)cc21` [Compound 148, 2-((4-(3-((4-Chloro-2-fluorobenzyl)oxy)phenyl)piperidin-1-yl)methyl)-4-(difluoromethoxy)-1-methyl-1H-benzo[d]imidazole-6-carboxylic acid] gave an EC50 of 100 to 1000 nM and an Emax greater than 85%.

In the case of `Cn1c(CN2CCC(c3cccc(OCc4ccc(C#N)cc4F)n3)CC2)nc2c(OC(C)(C)C)cc(C(=O)O)cc21` [Compound 135, 4-(tert-Butoxy)-2-((4-(6-((4-cyano-2-fluorobenzyl)oxy)pyridin-2-yl)piperidin-1-yl)methyl)-1-methyl-1H-benzo[d]imidazole-6-carboxylic acid], the EC50 fell in the range of 100 to 1000 nM and the Emax is greater than 85%.

In the case of `COCCOCCOCCOCCOCCOc1cc(C(=O)O)cc2c1nc(CN1CCC(c3cccc4c3O[C@@](C)(c3ccc(Cl)cn3)O4)CC1)n2Cc1cncs1` [Compound 4, (S)-4-((2,5,8,11,14-pentaoxahexadecan-16-yl)oxy)-2-((4-(2-(5-chloropyridin-2-yl)-2-methylbenzo[d][1,3]dioxol-4-yl)piperidin-1-yl)methyl)-1-(thiazol-5-ylmethyl)-1H-benzo[d]imidazole-6-carboxylic acid], the EC50 is less than 10 nM and the Emax was greater than 85%.

Take `Cn1c(CN2CCC(c3cccc4c3O[C@H](c3ccc(Cl)cc3F)CO4)CC2)nc2c(OC(F)F)cc(C(=O)O)cc21` [Compound 335, (R)-2-((4-(3-(4-Chloro-2-fluorophenyl)-2,3-dihydrobenzo[b][1,4]dioxin-5-yl)piperidin-1-yl)methyl)-4-(difluoromethoxy)-1-methyl-1H-benzo[d]imidazole-6-carboxylic acid]: the EC50 was greater than 1000 nM and the Emax lay in the range of 50 to 85%.

The molecule `COc1cc(C(=O)O)cc2c1nc([C@@H](C)N1CCC(c3cccc(OCc4ccc(C#N)cc4F)n3)CC1)n2C` [Compound 103, (R)-2-(1-(4-(6-((4-Cyano-2-fluorobenzyl)oxy)pyridin-2-yl)piperidin-1-yl)ethyl)-4-methoxy-1-methyl-1H-benzo[d]imidazole-6-carboxylic acid] had an EC50 greater than 1000 nM and an Emax of 50 to 85%.

`COc1nc(C(=O)O)cc2c1nc(CN1CCC(c3cccc(OCc4ccc(Cl)cc4F)n3)CC1)n2C` [Compound 380, 2-((4-(6-((4-Chloro-2-fluorobenzyl)oxy)pyridin-2-yl)piperidin-1-yl)methyl)-4-methoxy-1-methyl-1H-imidazo[4,5-c]pyridine-6-carboxylic acid] gave a 50% effective concentration (EC50) of 10 to 100 nM and a maximum response (Emax) greater than 85%.

Turning to `O=C(O)c1ccc2c(nc(CN3CCC(c4cccc(OCc5ccc(Cl)cc5F)n4)CC3)n2C[C@@H]2CCO2)c1OC(F)F` [Compound 191, (S)-2-((4-(6-((4-chloro-2-fluorobenzyl)oxy)pyridin-2-yl)piperidin-1-yl)methyl)-4-(difluoromethoxy)-1-(oxetan-2-ylmethyl)-1H-benzo[d]imidazole-5-carboxylic acid], the EC50 was 100 to 1000 nM and the Emax is greater than 85%.

In the case of `CN1C(=O)[C@H](c2ccc(Cl)cc2F)Oc2c(C3CCN(Cc4nc5c(OC(F)F)cc(C(=O)O)cc5n4C)CC3)cccc21` [Compound 241, (S)-2-((4-(2-(4-chloro-2-fluorophenyl)-4-methyl-3-oxo-3,4-dihydro-2H-benzo[b][1,4]oxazin-8-yl)piperidin-1-yl)methyl)-4-(difluoromethoxy)-1-methyl-1H-benzo[d]imidazole-6-carboxylic acid], the EC50 was greater than 1000 nM and the Emax is less than 25%.

For the molecule `Cn1c(CN2CCC(c3cccc(OCc4ccc(Cl)cc4F)n3)CC2)nc2c(O[C@H]3C[C@@H](F)C3)cc(C(=O)O)cc21` [Compound 379, 2-((4-(6-((4-Chloro-2-fluorobenzyl)oxy)pyridin-2-yl)piperidin-1-yl)methyl)-4-((1s,3s)-3-fluorocyclobutoxy)-1-methyl-1H-benzo[d]imidazole-6-carboxylic acid], the EC50 is 10 to 100 nM and the Emax was greater than 85%.

In turn, `C[C@@H](F)Oc1cc(C(=O)O)cc2c1nc(CN1CCC(c3cccc(OCc4ccc(Cl)cc4F)n3)CC1)n2C` (single isomer, unassigned) [Compound 361] returned an EC50 of 10 to 100 nM and an Emax greater than 85%.

One may read the EC50 as the concentration needed to bring the measured effect to its halfway point. Low values mean greater potency, high ones weaker potency. In general, Emax refers to the maximal effect, on the per cent scale that the assay sets.

These data come from US20240368120A1 (Terns Pharmaceuticals, Inc., priority 2023, published 2024).
